Test results as given in patent US8921571B2, “Pyrrolysine analogs” (The Ohio State University, priority 2009, dated 2014).
Where a name gives a salt, the structure may show the parent alone. Read-outs that look alike come from different tables or passages of the source.

Tests used:
[1] = tested on: UAG stop codon readthrough of mCherry (Lys55) with PylT/PylS genes from Methanosarcina mazei; test: modified mCherry fluorescence protein assay for stop codon readthrough (Example 2); format: cell-based, E. coli strain BL21(DE3); details: for mCherry production: Terrific Broth
Procedure: The site-specific incorporation efficiencies of these analogs were measured with a modified fluorescence protein assay using a fluorescent protein as a reporting gene to monitor stop codon readthrough. This approach was made compatible with large scale measurements by 1) using mCherry instead of GFP to reduce the fluorescence background introduced by growth medium, 2) growing the host cells in 24-well plates to facilitate handling of multiple samples and minimize deviation between samples, and 3) measuring the fluorescence intensity of the cell culture in the plates to save the labor of electrophoresis and western blotting.
In this study, the Lys55 codon of mCherry was site-specifically mutated to UAG and inserted into the plasmid pPylST harbouring the pyrrolysine tRNA (PylT) and synthetase (PylS) genes from Methanosarcina mazei. E. coli strain BL21(DE3) transformed with this plasmid was grown in the Terrific Broth medium supplied with 2 mM pyrrolysine analog to be examined. […] These differences are seen in FIG. 3, where the results have been normalized against analog 3. Similar results were observed when the supplied analog concentration varied from 0.5 mM to 20 mM.
As analogs 4-6 were prepared and screened as ˜1:1 mixtures of diastereomers, we carried out further readthrough experiments with isomerically pure samples of 6 prepared from commercially available (R)- and (S)-propargylglycines. The readthrough efficiencies of L-6, D-6 and the enantiomer mixture were tested at various concentrations. […] This is seen in FIG. 4. […] One explanation is that the less efficient incorporable isomer L-6 is a competitive inhibitor of D-6.
The effect of the growth medium pH on the readthrough efficiency of D-6 was investigated using the modified mCherry assay. […] When 2 mM D-6 was used as substrate, the production of full-length mCherry increased as the pH of the growth medium increased. The total amount of produced mCherry peaked at pH 8.5 and dropped a little at pH 9.0 due to a lower cell density.

[2] = tested on: UAG codon readthrough of mCherry (Lys55 codon mutated to UAG) with PylT/PylS; test: mCherry UAG codon readthrough assay (Example 1); format: cell-based, E. coli strain BL21(DE3); details: for readthrough of the UAG codon: Terrific Broth medium, varying concentrations
Procedure: In order to evaluate the UAG codon readthrough efficiency for the two diastereomers, the brightly emitting red fluorescent protein, mCherry, was employed as a reporter. Briefly, the Lys55 codon of this protein was site-specifically mutated to UAG and inserted into the plasmid pPylST harbouring the pyrrolysine tRNA (PylT) and synthetase (PylS) genes. E. coli strain BL21(DE3) transformed with this plasmid was grown in the Terrific Broth medium supplied with either the (S,S)-isomer or (R,S)-isomer at varying concentrations. […] This is seen in the graph of FIG. 1, where the relative fluorescence of the (S,S)-isomer was higher at all concentrations.

recombinant protein = test: incorporation into a recombinant protein; format: cell-based
[3] = 2 mM analog, normalized against analog 3, ~1:1 mixture of diastereomers

**Q.** For `C#CCC(O)C(=O)NCCCC[C@H](N)C(=O)O` (stereo partly drawn) [Formula 5], which mCherry production ([1]; 2 mM analog) is on record?
**A.** The mCherry production was “no detectable mCherry production”.

**Q.** Which “readthrough efficiency (in words)” value [1] does the source give for `C#CCC(N)C(=O)NCCCC[C@H](N)C(=O)O` (stereo partly drawn) [Formula 6] here?
**A.** Its value is “best substrate”.

**Q.** What about the “readthrough efficiency, more efficient than analog 3” value [1, 3] of the same molecule?
**A.** The value was 69%.

**Q.** `C#CCCC(=O)NCCCC[C@H](N)C(=O)O` [Formula 7] was tested. Which mCherry production ([1]; 2 mM analog) did it give?
**A.** The mCherry production was “no detectable mCherry production”.

**Q.** What does the source list for `N[C@H](CS)C(=O)NCCCC[C@H](N)C(=O)O` [Formula (1)]?
**A.** readthrough of the UAG codon [2]: enabled readthrough of the UAG codon; readthrough efficiency, comparison of the two isomers ([2]; versus (R,S)-isomer, FIG. 1): much better substrate

**Q.** Which “readthrough of the UAG codon” value [2] does the source give for `N[C@@H](CCCCNC(=O)[C@@H](N)CS)C(=O)O` [Formula (2)] here?
**A.** Its value is “enabled readthrough of the UAG codon”.

**Q.** With `C#CCC(N)C(=O)NCCCC[C@H](N)C(=O)O` (stereo partly drawn) [Formula (6)] as the molecule, how does the “readthrough efficiency (in words)” value ([1]; listed as enantiomer mixture) read?
**A.** Its value is “moderate efficiency”.

**Q.** `[N-]=[N+]=NCC(=O)NCCCC[C@H](N)C(=O)O` [Formula (10), N^6-(Azidoacetyl)lysine trifluoroacetate] was tested. Which “readthrough efficiency, fold less efficient than analog 3” value [1, 3] did it give?
**A.** The value was 30 fold.

**Q.** `CC1(CC(=O)NCCCC[C@H](N)C(=O)O)N=N1` [Formula (11), N^6-(2-(3-Methyl-3H-diazirin-3-yl)acetyl)lysine trifluoroacetate] was tested. Which “incorporation into a recombinant protein” value (recombinant protein) did it give?
**A.** Its value is “incorporated into a recombinant protein”.

**Q.** Which results are given for `C#CC[C@@H](N)C(=O)NCCCC[C@H](N)C(=O)O` [Formula D-6]?
**A.** readthrough efficiency (in words) [1]: highly efficient; readthrough efficiency, fold more efficient than L-6 ([1]; isomerically pure samples, various concentrations, FIG. 4): 35 fold
